Laboratory results: US20210238225A1, “PEPTIDOMIMETIC INHIBITORS OF THE PEPTIDYL-PROLYL CIS/TRANS ISOMERASE (PIN1)” (DANA-FARBER CANCER INSTITUTE, INC., priority 2018, published 2021)
Non-standard residues stand in square brackets, D forms with d. Residues, ends and D or L forms follow the SMILES beside them. *: point of attachment. alloThr(PO3H2) = C[C@H](OP(=O)(O)O)[C@H](N)C(=O)O; 2Nal = N[C@@H](Cc1ccc2ccccc2c1)C(=O)O; Met(O2) = CS(=O)(=O)CC[C@H](N)C(=O)O; Cit = NC(=O)NCCC[C@H](N)C(=O)O; aThr = C[C@H](O)[C@H](N)C(=O)O; Pip = O=C(O)[C@@H]1CCCCN1; ClAc = O=C(CCl)*

Molecular target: Pin1 (GST-Pin1) (Homo sapiens, UniProt Q13526)
Sequence (Q13526 whole entry): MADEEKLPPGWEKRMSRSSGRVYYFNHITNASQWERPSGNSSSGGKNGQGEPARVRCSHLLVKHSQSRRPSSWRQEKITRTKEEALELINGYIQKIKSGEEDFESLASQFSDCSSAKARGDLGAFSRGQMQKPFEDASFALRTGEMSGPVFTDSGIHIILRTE
Experiment: Fluorescence polarization (FP) assay, binding to Pin1
Details: competition with fluorescein-labeled peptide probe; 12 hours pre-incubation at 4° C.; Kenakin Ki equation; read-out: Ki, μM (FP Assay)

Row | SMILES | Ki [µM]
1 | COC(=O)CC[C@H](NC(=O)CCl)C(=O)N1CCCC[C@H]1C(=O)N[C@@H](Cc1c[nH]c2ccccc12)C(=O)N[C@@H](Cc1ccc(O)cc1)C(=O)NCc1ccc(C)cc1 (single isomer, unassigned) [Compound 11-26] | > 10
2 | C[C@H](OP(=O)(O)O)[C@H](NC(=O)CCl)C(=O)N1CCCC[C@H]1C(=O)N[C@@H](Cc1ccc2ccccc2c1)C(=O)N[C@@H](CCC(N)=O)C(N)=O [Compound 2-4, (2S,3S)-3-(2-Chloroacetamido)-4-((S)-2-(((S)-1-(((S)-1,5-diamino-1,5-dioxopentan-2-yl)amino)-3-(naphthalen-2-yl)-1-oxopropan-2-yl)carbamoyl)piperidin-1-yl)-4-oxobutan-2-yl dihydrogen phosphate] (ClAc-[alloThr(PO3H2)][Pip][2Nal]Q-NH2) | 1.24
3 | C[C@H](O)[C@H](NC(=O)[C@H](Cc1ccc2ccccc2c1)NC(=O)[C@@H]1CCCCN1C(=O)[C@H](CCC(=O)O)NC(=O)CCl)C(N)=O [Compound 2-7, (S)-5-((S)-2-(((S)-1-(((2S,3S)-1-Amino-3-hydroxy-1-oxobutan-2-yl)amino)-3-(naphthalen-2-yl)-1-oxopropan-2-yl)carbamoyl)piperidin-1-yl)-4-(2-chloroacetamido)-5-oxopentanoic acid] (ClAc-E[Pip][2Nal][aThr]-NH2) | 0.3

Other lines, results leading:

Row | Ki [µM] | SMILES
4 | 0.074 | COC(=O)CC[C@H](NC(=O)CCl)C(=O)N1CCCC[C@H]1C(=O)N[C@@H](Cc1c[nH]c2ccccc12)C(=O)N[C@@H](CCCNC(N)=O)C(N)=O [Compound 2, Methyl (S)-5-((S)-2-(((S)-1-(((S)-1-amino-1-oxo-5-ureidopentan-2-yl)amino)-3-(1H-indol-3-yl)-1-oxopropan-2-yl)carbamoyl)piperidin-1-yl)-4-(2-chloroacetamido)-5-oxopentanoate] (ClAc-E(OMe)[Pip]W[Cit]-NH2)
5 | > 10 | NC(=O)CC[C@H](NC(=O)[C@H](Cc1ccc2ccccc2c1)NC(=O)[C@@H]1CCCCN1C(=O)[C@@H](CC(=O)O)NC(=O)CCl)C(N)=O [Compound 2-1, (R)-3-(2-Chloroacetamido)-4-((S)-2-(((S)-1-(((S)-1,5-diamino-1,5-dioxopentan-2-yl)amino)-3-(naphthalen-2-yl)-1-oxopropan-2-yl)carbamoyl)piperidin-1-yl)-4-oxobutanoic acid] (ClAc-[dD][Pip][2Nal]Q-NH2)
6 | > 10 | NC(=O)CC[C@H](NC(=O)[C@H](Cc1ccc2ccccc2c1)NC(=O)[C@@H]1CCCCN1C(=O)[C@H](CC(=O)O)NC(=O)CCl)C(N)=O [Compound 2-2, (S)-3-(2-Chloroacetamido)-4-((S)-2-(((S)-1-(((S)-1,5-diamino-1,5-dioxopentan-2-yl)amino)-3-(naphthalen-2-yl)-1-oxopropan-2-yl)carbamoyl)piperidin-1-yl)-4-oxobutanoic acid] (ClAc-D[Pip][2Nal]Q-NH2)
7 | > 10 | CS(=O)(=O)CC[C@H](NC(=O)CCl)C(=O)N1CCCC[C@H]1C(=O)N[C@@H](Cc1ccc2ccccc2c1)C(=O)N[C@@H](CCC(N)=O)C(N)=O [Compound 2-3, (S)-2-((S)-2-((S)-1-((S)-2-(2-Chloroacetamido)-4-(methylsulfonyl)butanoyl)piperidine-2-carboxamido)-3-(naphthalen-2-yl)propanamido)pentanediamide] (ClAc-[Met(O2)][Pip][2Nal]Q-NH2)
8 | 0.13 | C[C@H](OP(=O)(O)O)[C@H](NC(=O)CCl)C(=O)N1CCCC[C@H]1C(=O)N[C@@H](Cc1ccc2ccccc2c1)C(=O)N[C@@H](CCCNC(=N)N)C(N)=O [Compound 2-5, (2S,3S)-4-((S)-2-(((S)-1-(((S)-1-Amino-5-guanidino-1-oxopentan-2-yl)amino)-3-(naphthalen-2-yl)-1-oxopropan-2-yl)carbamoyl)piperidin-1-yl)-3-(2-chloroacetamido)-4-oxobutan-2-yl dihydrogen phosphate] (ClAc-[alloThr(PO3H2)][Pip][2Nal]R-NH2)
